Measurements: patent US9113629B2, “4-amino-6-(4-substituted-phenyl)-picolinates and 6-amino-2-(4-substituted-phenyl)-pyrimidine-4-carboxylates and their use as herbicides” (DOW AGROSCIENCES LLC, priority 2013, dated 2015)
Like-named read-outs stand apart in the source and are kept apart here.

What was measured:
[1] = test system: Key Broadleaf Weed and Crop Species; experiment: Post-emergent Test II herbicidal activity (Table 5); type: in vivo; conditions: post-emergence, 336 h, 14 days after application; for pest or weed control at 70 g/ha: application rate 70 g ai/ha; for pest or weed control at 140 g/ha: application rate 140 g ai/ha
In short: (§1)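 Compounds, dissolved in 97:3 acetone/DMSO and diluted into an aqueous carrier containing crop oil concentrate and Triton X-155, are applied over the top of young plants at 187 L/ha. Injury is scored visually at 14 d, 0% meaning no effect and 100% complete kill.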

[2] = test system: Key Grass and Sedge Weeds as well as Grass Crops; experiment: Post-emergent Test II herbicidal activity (Table 6); type: in vivo; conditions: post-emergence, 336 h; for pest or weed control at 70 g/ha: 70 g ai/ha; for pest or weed control at 140 g/ha: 140 g ai/ha
In short: as §1

[3] = ABUTH: velvetleaf (Abutilon theophrasti), read-out: Visual Growth Reduction (%) 14 Days After Application, ABUTH
[4] = AMARE: redroot pigweed (Amaranthus retroflexus), read-out: Visual Growth Reduction (%) 14 Days After Application, AMARE
[5] = BRSNN: oilseed-rape, canola (Brassica napus), read-out: Visual Growth Reduction (%) 14 Days After Application, BRSNN
[6] = CHEAL: lambsquarters (Chenopodium album), read-out: Visual Growth Reduction (%) 14 Days After Application, CHEAL
[7] = EPHHL: wild poinsettia (Euphorbia heterophylla), read-out: Visual Growth Reduction (%) 14 Days After Application, EPHHL
[8] = HELAN: sunflower (Helianthus annuus), read-out: Visual Growth Reduction (%) 14 Days After Application, HELAN
[9] = VIOTR: wild pansy (Viola tricolor), read-out: Visual Growth Reduction (%) 14 Days After Application, VIOTR
[10] = CYPES: yellow nutsedge (Cyperus esculentus), read-out: Visual Growth Reduction (%) 14 Days After Application, CYPES
[11] = DIGSA: crabgrass (Digitaria sanguinalis), read-out: Visual Growth Reduction (%) 14 Days After Application, DIGSA
[12] = ECHCG: barnyardgrass (Echinochloa crus-galli), read-out: Visual Growth Reduction (%) 14 Days After Application, ECHCG
[13] = ORYSA: rice (Oryza sativa), crop, read-out: Visual Growth Reduction (%) 14 Days After Application, ORYSA
[14] = SETFA: giant foxtail (Setaria faberi), read-out: Visual Growth Reduction (%) 14 Days After Application, SETFA
[15] = SORVU: grain sorghum (Sorghum vulgare), read-out: Visual Growth Reduction (%) 14 Days After Application, SORVU
[16] = TRZSS (wheat, Triticum aestivum), crop, read-out: Visual Growth Reduction (%) 14 Days After Application, TRZSS
[17] = ZEAMX: maize, corn (Zea mays), crop, read-out: Visual Growth Reduction (%) 14 Days After Application, ZEAMX

Compound | pest or weed control at 70 g/ha [1, 3] | pest or weed control at 140 g/ha [1, 3] | pest or weed control at 70 g/ha [1, 4] | pest or weed control at 140 g/ha [1, 4] | pest or weed control at 70 g/ha [1, 5] | pest or weed control at 140 g/ha [1, 5] | pest or weed control at 70 g/ha [1, 6] | pest or weed control at 140 g/ha [1, 6] | pest or weed control at 70 g/ha [1, 7] | pest or weed control at 140 g/ha [1, 7] | pest or weed control at 70 g/ha [1, 8] | pest or weed control at 140 g/ha [1, 8] | pest or weed control at 70 g/ha [1, 9] | pest or weed control at 140 g/ha [1, 9] | pest or weed control at 70 g/ha [2, 10] | pest or weed control at 140 g/ha [2, 10] | pest or weed control at 70 g/ha [2, 11] | pest or weed control at 140 g/ha [2, 11] | pest or weed control at 70 g/ha [2, 12] | pest or weed control at 140 g/ha [2, 12] | further results
Nc1c(F)c(-c2ccc(C(F)(F)F)c(F)c2F)nc(C(=O)O)c1Cl [Compound 167] | 85 to 94% | 95 to 100% | 95 to 100% | 95 to 100% | 95 to 100% | 95 to 100% | 95 to 100% | 95 to 100% | 95 to 100% | 95 to 100% | 95 to 100% | 95 to 100% | 95 to 100% | 85 to 94% | 85 to 94% | 95 to 100% | 75 to 84% | 75 to 84% | 95 to 100% | 95 to 100% | pest or weed control at 70 g/ha [2, 13]: 0 to 29%; pest or weed control at 140 g/ha [2, 13]: 0 to 29%; pest or weed control at 70 g/ha [2, 14]: 85 to 94%; pest or weed control at 140 g/ha [2, 14]: 95 to 100%; pest or weed control at 70 g/ha [2, 15]: 85 to 94%; pest or weed control at 140 g/ha [2, 15]: 85 to 94%; pest or weed control at 70 g/ha [2, 16]: 60 to 74%; pest or weed control at 140 g/ha [2, 16]: 60 to 74%; pest or weed control at 70 g/ha [2, 17]: 75 to 84%; pest or weed control at 140 g/ha [2, 17]: 85 to 94%; melting point: 69 to 70 °C
Cc1ccc(-c2nc(C(=O)O)c(Cl)c(N)c2F)c(F)c1F [Compound 210] | 85 to 94% | 95 to 100% | 95 to 100% | 95 to 100% | 75 to 84% | 75 to 84% | 95 to 100% | 95 to 100% | 95 to 100% | 95 to 100% | 95 to 100% | 95 to 100% | 0 to 29% | 0 to 29% | 0 to 29% | 0 to 29% | 0 to 29% | 0 to 29% | 60 to 74% | 75 to 84% | pest or weed control at 70 g/ha [2, 13]: 0 to 29%; pest or weed control at 140 g/ha [2, 13]: 30 to 44%; pest or weed control at 70 g/ha [2, 14]: 75 to 84%; pest or weed control at 140 g/ha [2, 14]: 85 to 94%; pest or weed control at 70 g/ha [2, 15]: 0 to 29%; pest or weed control at 140 g/ha [2, 15]: 0 to 29%; pest or weed control at 70 g/ha [2, 16]: 0 to 29%; pest or weed control at 140 g/ha [2, 16]: 0 to 29%; pest or weed control at 70 g/ha [2, 17]: 0 to 29%; pest or weed control at 140 g/ha [2, 17]: 45 to 59%; melting point: 159 °C (dec.)
